Laboratory results as given in ChEMBL document CHEMBL1201862, “PubChem BioAssay data set” (2004).
Active and inactive are the calls of the source.

Assays:
[1] = molecular target: T1, Sentrin-specific protease 7 (Homo sapiens, UniProt Q9BQF6); assay type: functional;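 further: Luminescence-based dose-response confirmation of ultra-high-throughput screening hits, measuring inhibition of SENP7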
T1 sequence (Q9BQF6 whole entry): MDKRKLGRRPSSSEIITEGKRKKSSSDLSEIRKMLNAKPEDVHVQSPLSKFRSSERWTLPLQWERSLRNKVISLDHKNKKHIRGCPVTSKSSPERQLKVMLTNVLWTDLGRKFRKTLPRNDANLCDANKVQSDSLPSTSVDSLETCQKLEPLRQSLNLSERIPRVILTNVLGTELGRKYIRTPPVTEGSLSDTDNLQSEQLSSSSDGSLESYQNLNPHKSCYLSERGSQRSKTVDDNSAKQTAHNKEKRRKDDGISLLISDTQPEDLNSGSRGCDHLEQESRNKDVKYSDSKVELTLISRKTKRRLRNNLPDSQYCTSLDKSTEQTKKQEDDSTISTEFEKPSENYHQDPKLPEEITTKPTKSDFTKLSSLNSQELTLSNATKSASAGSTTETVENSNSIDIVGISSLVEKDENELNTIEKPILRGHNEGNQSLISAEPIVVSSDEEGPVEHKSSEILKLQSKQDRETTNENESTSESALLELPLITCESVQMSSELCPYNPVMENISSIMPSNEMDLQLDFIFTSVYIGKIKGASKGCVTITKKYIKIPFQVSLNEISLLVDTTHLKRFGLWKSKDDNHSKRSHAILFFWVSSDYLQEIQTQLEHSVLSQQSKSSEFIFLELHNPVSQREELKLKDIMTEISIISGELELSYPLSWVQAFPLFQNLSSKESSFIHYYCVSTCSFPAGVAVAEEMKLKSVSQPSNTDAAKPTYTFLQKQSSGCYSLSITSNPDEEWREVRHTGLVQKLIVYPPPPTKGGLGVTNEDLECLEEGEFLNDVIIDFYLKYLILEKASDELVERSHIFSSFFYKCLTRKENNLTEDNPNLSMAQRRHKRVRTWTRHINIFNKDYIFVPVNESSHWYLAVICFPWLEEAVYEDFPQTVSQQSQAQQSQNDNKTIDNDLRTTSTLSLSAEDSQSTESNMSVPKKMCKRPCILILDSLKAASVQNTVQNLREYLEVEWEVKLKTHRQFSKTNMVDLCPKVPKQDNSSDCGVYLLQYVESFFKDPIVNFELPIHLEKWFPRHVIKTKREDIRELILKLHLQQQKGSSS

[2] = molecular target: T2, Sentrin-specific protease 6 (Homo sapiens, UniProt Q9GZR1); assay type: functional;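 further: Luminescence-based dose-response confirmatory assay of SENP6 inhibition, following up an ultra-high-throughput screen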
T2 sequence (Q9GZR1 whole entry): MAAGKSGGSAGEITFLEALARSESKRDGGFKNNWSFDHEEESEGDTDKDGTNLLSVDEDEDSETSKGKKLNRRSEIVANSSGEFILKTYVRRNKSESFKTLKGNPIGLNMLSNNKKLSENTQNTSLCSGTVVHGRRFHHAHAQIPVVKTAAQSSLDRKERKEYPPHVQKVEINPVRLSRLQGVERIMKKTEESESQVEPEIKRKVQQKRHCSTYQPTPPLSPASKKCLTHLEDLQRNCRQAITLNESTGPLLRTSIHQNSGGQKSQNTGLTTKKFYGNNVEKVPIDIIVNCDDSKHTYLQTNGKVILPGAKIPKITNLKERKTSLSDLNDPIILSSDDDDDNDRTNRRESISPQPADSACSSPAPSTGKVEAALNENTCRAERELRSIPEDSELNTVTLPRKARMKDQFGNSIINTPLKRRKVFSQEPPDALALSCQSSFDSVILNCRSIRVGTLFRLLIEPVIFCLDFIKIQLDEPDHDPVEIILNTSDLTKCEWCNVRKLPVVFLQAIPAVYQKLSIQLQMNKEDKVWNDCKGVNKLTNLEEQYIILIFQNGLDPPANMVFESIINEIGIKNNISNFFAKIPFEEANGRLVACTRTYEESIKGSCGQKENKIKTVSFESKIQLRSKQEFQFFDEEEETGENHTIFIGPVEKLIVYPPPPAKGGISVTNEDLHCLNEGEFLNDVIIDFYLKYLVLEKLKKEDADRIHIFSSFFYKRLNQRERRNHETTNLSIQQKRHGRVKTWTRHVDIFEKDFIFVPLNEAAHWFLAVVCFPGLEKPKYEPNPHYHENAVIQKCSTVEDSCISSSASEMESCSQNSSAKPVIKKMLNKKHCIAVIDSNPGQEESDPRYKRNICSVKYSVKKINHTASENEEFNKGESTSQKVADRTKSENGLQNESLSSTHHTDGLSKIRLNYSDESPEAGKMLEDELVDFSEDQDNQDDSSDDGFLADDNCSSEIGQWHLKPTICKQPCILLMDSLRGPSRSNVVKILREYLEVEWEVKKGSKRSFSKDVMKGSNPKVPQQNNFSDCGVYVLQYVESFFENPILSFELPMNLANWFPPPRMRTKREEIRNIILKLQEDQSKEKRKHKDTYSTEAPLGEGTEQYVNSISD

[3] = molecular target: T3, Sentrin-specific protease 8 (Homo sapiens, UniProt Q96LD8); assay type: functional;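 further: luminescence read-out of SENP8 inhibition, dose-response confirmation following an ultra-high-throughput screen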
T3 sequence (Q96LD8 whole entry): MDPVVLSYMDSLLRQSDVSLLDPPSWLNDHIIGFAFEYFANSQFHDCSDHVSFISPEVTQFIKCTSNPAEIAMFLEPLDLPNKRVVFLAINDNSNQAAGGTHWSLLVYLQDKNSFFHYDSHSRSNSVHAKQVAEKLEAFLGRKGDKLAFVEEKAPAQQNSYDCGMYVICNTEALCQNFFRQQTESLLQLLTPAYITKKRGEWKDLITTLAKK

[4] = molecular target: T4, Rac GTPase-activating protein 1 (Homo sapiens, UniProt Q9H0H5); test: MgcRacGAP GTPase-activating activity inhibitors, confirmation, biochemical, ADP Hunter fluorescence, primary and confirmatory (AID 624330); assay type: functional
T4 sequence (Q9H0H5 whole entry): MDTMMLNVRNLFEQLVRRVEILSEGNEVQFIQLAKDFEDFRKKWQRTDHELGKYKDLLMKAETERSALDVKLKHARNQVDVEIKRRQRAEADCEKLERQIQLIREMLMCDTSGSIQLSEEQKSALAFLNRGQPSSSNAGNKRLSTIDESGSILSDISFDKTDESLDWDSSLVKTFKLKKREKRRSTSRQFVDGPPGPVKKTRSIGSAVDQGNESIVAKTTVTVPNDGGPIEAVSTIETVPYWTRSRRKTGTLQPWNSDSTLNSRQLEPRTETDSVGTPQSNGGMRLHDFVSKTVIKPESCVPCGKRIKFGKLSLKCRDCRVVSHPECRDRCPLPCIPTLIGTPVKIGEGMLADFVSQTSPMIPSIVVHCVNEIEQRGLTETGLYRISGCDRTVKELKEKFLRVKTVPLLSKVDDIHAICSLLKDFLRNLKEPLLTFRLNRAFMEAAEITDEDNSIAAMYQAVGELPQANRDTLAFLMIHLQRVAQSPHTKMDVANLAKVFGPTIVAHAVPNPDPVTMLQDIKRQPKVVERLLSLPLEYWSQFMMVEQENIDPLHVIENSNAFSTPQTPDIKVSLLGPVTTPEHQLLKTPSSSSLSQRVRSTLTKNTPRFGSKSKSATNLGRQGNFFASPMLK

Caspase-3 = molecular target: T5, Caspase-3 (Homo sapiens, UniProt P42574); assay type: functional;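 further: Dose-response selectivity test against caspase-3 for candidate inhibitors of sentrin-specific proteases (SENPs)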
T5 sequence (P42574 whole entry): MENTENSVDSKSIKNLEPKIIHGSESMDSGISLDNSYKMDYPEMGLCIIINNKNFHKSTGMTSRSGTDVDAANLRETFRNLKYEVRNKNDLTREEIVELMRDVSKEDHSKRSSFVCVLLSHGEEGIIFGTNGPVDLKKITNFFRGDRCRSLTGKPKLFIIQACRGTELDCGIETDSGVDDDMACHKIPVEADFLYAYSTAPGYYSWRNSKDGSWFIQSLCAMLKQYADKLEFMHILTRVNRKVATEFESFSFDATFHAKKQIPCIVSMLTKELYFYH

[5] = HeLa cell cytotoxicity, dose response, cytotoxicity control for MgcRacGAP inhibitor project (AID 624300); assay type: functional
[6] = Counterscreen for inhibitors of Trypanosoma brucei methionyl tRNA synthetase (MetRS): Luminescence-based cell-based high throughput dose response assay to identify compounds that are cytotoxic to Jurkat human T lymphocyte cells.; assay type: functional
[7] = molecular target: T6, Methionyl-tRNA synthetase, putative (Trypanosoma brucei brucei, UniProt Q38C91); assay type: functional, Trypanosoma brucei brucei strain 927/4 GUTat10.1
[8] = molecular target: T6, Methionyl-tRNA synthetase, putative; assay type: functional, Trypanosoma brucei brucei strain 927/4 GUTat10.1; remark: listed apart in the source

T6 sequence (Q38C91 whole entry): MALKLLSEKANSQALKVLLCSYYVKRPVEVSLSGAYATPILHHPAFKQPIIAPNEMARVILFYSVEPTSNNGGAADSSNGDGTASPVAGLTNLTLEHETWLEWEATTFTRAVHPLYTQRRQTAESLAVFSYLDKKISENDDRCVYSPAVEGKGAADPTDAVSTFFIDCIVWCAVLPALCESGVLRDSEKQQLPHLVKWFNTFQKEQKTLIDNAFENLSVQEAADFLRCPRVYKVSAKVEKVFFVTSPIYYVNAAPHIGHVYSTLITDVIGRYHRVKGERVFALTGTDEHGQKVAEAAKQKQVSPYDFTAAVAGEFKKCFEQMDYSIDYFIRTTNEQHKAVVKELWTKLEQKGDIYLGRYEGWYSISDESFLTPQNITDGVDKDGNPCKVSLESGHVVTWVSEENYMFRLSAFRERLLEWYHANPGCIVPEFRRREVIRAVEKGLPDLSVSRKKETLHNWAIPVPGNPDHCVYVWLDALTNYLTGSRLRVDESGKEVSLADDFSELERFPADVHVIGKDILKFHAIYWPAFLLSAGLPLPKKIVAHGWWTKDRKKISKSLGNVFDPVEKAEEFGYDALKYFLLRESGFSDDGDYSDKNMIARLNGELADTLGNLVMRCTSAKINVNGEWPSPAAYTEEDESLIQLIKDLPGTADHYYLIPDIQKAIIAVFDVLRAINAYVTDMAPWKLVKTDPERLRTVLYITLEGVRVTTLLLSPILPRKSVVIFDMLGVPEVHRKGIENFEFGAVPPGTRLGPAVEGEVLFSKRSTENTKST

COc1ccc(NC(=O)n2ncc3cc(Cl)ccc32)cc1OC
active: IC50 [1] 6.04 µM | IC50 [2] 15.1 µM | IC50 [3] 20.3 µM | IC50 [4] 230 µM | IC50 (Caspase-3) 25.5 µM | CC50 [5] 100 µM

Cc1ccc(NC(=O)C=NOCC(=O)Nc2cc(C)cc(C)c2)cc1
inactive: IC50 [6] 83.3 µM | IC50 [7] 119 µM
active: IC50 [8] 8.66 µM
